# Assay results from US20070099912A1, “Pyrrolo[2,3-F] and [3,2-F]Isoquinolinone derivatives as 5-hydroxytryptamine-6 ligands” (Wyeth, priority 2005, published 2007).
# Structures can show the parent of a compound that is named as a salt.
# What was measured:
# [1] = molecular target: human cloned 5-HT6 receptors (Homo sapiens, UniProt P50406)
# human cloned 5-HT6 receptors, sequence (P50406 whole entry): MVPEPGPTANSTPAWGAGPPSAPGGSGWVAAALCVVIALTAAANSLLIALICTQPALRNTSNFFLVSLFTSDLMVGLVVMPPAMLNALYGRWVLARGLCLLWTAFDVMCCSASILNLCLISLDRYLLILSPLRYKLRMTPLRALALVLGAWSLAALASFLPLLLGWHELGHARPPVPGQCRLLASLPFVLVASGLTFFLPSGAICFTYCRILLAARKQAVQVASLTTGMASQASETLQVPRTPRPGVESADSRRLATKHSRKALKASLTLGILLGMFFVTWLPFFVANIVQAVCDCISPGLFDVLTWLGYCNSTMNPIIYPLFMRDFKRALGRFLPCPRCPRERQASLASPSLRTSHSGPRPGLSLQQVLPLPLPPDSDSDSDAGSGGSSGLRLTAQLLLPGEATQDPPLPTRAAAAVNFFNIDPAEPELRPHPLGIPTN
SMILES,melting point,Ki [1]
"CN(C)CCn1ccc2ccc3c(=O)n(Cc4ccccc4)ccc3c21 (as salt: hydrochloride) [Example 6, 7-Benzyl-1-[2-(dimethylamino)ethyl]-1.7-dihydro-6H-pyrrolo[2,3-f]isoquinolin-6-one hydrochloride]",100 to 102 °C,
"NCCn1ccc2ccc3c(=O)n(Cc4ccccc4)ccc3c21 (as salt: hydrochloride) [Example 7, 1-(2-Aminoethyl)-7-benzyl-1,7-dihydro-6H-pyrrolo[2,3-f]isoquinolin-6-one hydrochloride]",153 to 154 °C,
"CN(C)CCn1ccc2ccc3c(=O)n(Cc4ccccc4)ccc3c21 [Example 6, 7-Benzyl-1-[2-(dimethylamino)ethyl]-1.7-dihydro-6H-pyrrolo[2,3-f]isoquinolin-6-one hydrochloride]",,388 nM
"NCCn1ccc2ccc3c(=O)n(Cc4ccccc4)ccc3c21 [Example 7, 1-(2-Aminoethyl)-7-benzyl-1,7-dihydro-6H-pyrrolo[2,3-f]isoquinolin-6-one hydrochloride]",,180 nM
"NCCn1ccc2c3ccn(Cc4ccc(F)cc4)c(=O)c3ccc21 [Example 13, 3-(2-aminoethyl)-7-(4-fluorobenzyl)-3,7-dihydro-6H-pyrrolo[3,2-f]isoquinolin-6-one]",203 to 205 °C,426 nM
"CN(C)CCn1ccc2c3ccn(Cc4ccc(F)cc4)c(=O)c3ccc21 [Example 14, 3-[2-(dimethylamino)ethyl]-7-(4-fluorobenzyl)-3,7-dihydro-6H-pyrrolo[3,2-f]isoquinolin-6-one]",221 to 223 °C,379 nM
"O=c1c2ccc3c(ccn3CCN3CCCC3)c2ccn1Cc1ccc(F)cc1 [Example 15, 7-(4-fluorobenzyl)-3-(2-pyrrolidin-1-ylethyl)-3,7-dihydro-6H-pyrrolo[3,2-f]isoquinolin-6-one]",229 to 231 °C,507 nM
"CN(C)CCCn1ccc2c3ccn(Cc4ccc(F)cc4)c(=O)c3ccc21 [Example 16, 3-[3-(dimethylamino)propyl]-7-(4-fluorobenzyl)-3,7-dihydro-6H-pyrrolo[3,2-f]isoquinolin-6-one]",49 to 51 °C,
